# Source: paper PMC2730741 (Bioorganic & medicinal chemistry, 2009)
# “Also recorded” adds a separate entry of the source.
# What was measured:
# in vitro = settings: microsomes
# lethal factor (LF) = lethal factor (LF) (Bacillus anthracis, UniProt P15917); test: biochemical; type: biochemical
# [1] = microsomes
# [2] = test system: LF cleavage of MEK1 in HeLa cells; type: cell-based, Human
# [3] = test system: Bacillus anthracis Sterne spores; parameters: species or system A/J mice; settings: mouse, in vivo
# [4] = test system: RAW 264.7 macrophages, LF/PA induced cell death; test: cells; type: cell-based, Murine; settings: Mus musculus, RAW264.7, 4 h, read-out: EC50 (macrophage assay)
# Chain of lethal factor (LF) (P15917 34-809 limits assumed): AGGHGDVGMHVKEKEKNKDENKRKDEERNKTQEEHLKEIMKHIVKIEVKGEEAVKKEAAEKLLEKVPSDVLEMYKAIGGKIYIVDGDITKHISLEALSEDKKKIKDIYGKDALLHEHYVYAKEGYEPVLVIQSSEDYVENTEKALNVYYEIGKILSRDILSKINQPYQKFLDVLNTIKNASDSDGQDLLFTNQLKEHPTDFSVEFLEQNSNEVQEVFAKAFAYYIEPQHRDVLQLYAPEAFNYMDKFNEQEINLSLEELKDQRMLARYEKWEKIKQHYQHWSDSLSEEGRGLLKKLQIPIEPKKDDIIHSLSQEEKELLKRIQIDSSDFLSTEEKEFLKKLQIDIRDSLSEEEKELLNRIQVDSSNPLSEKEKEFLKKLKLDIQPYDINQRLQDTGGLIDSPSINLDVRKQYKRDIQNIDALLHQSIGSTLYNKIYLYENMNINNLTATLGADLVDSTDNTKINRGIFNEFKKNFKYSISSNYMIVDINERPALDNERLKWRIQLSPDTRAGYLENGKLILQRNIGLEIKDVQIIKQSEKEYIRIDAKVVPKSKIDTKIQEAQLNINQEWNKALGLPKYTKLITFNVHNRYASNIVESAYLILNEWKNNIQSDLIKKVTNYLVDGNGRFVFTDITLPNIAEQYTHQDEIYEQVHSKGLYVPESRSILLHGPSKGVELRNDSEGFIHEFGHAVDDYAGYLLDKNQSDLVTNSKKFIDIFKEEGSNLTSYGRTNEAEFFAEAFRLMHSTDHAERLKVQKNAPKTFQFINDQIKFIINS
SMILES,Pampa,half-life (in vitro) [h],IC50 (lethal factor (LF)) [µM],other results
O=S(=O)(Nc1sccc1-c1nc2ccccc2s1)c1ccc(-c2ccc(Cl)cc2)cc1 [Compound 71],Low,> 2,,
O=S(=O)(Nc1sc2c(c1-c1nc3ccccc3s1)CCCC2)c1ccc(-c2ccc(Cl)cc2)cc1 [Compound 106],,,> 50,
"O=S(=O)(Nc1sccc1-c1nc2ccccc2s1)c1ccc2ncsc2c1 [Compound 92, N-(3-(benzo[d]thiazol-2-yl)thiophen-2-yl)benzo[d]thiazole-6-sulfonamide]",High,> 2,,Metabolic stability Hept. CLint [1]: t1/2= >120min CLint= 3.9
"Nc1sccc1-c1nc2ccccc2s1 [Compound 42, reference compound]",,,,inhibitory activity against LF (in words) (lethal factor (LF)): essentially inactive
"CSc1nccc(-c2ccc(S(=O)(=O)Nc3sccc3-c3nc4ccccc4s3)s2)n1 [Compound 99, N-(3-(benzo[d]thiazol-2-yl)thiophen-2-yl)-5-(2-(methylthio)pyrimidin-4-yl)thiophene-2-sulfonamide]",,,18,
Cc1cc(S(=O)(=O)N[C@H](C(=O)NO)C2CCOCC2)ccc1F [Compound 7],,,,protection of HeLa cells against LF cleavage of MEK1 [2]: effective
"Cc1csc(NS(=O)(=O)c2ccc([N+](=O)[O-])cc2)c1-c1nc2ccccc2s1 [Compound 17, N-(3-(benzo[d]thiazol-2-yl)-4-methylthiophen-2-yl)-4-nitrobenzenesulfonamide]",High,> 2,,Metabolic stability Hept. CLint [1]: t1/2= >120min CLint= 0.6
"CNC(=O)[C@H](Cc1c[nH]c2ccccc12)NC(=O)[C@@H](CC(=O)NO)CC(C)C [Inhibitor 1, Ilomastat]",,,,protection of HeLa cells against LF cleavage of MEK1 [2]: effective
"Cc1ccc(S(=O)(=O)Nc2sccc2-c2nc3ccccc3s2)cc1Cl [Compound 55, N-(3-(benzo[d]thiazol-2-yl)thiophen-2-yl)-3-chloro-4-methylbenzenesulfonamide]",High,> 2,,survival of infected mice versus DMSO control [3]: slight improvement in comparison to the control
COc1ccc(-c2ccc(S(=O)(=O)Nc3sc4c(c3-c3nc5ccccc5s3)CCCC4)cc2)cc1 [Compound 105],,,> 50,
"O=S(=O)(Nc1sccc1-c1nc2ccccc2s1)c1cc(OCC(F)(F)F)ccc1OCC(F)(F)F [Compound 56, N-(3-(benzo[d]thiazol-2-yl)thiopen-2-yl)-2,5-bis(2,2,2-trifluoroethoxy)benzenesulfonamide]",,,39,
COc1ccc(-c2ccc(S(=O)(=O)Nc3sccc3-c3nc4ccccc4s3)cc2)cc1 [Compound 70],Low,> 2,,EC50 [4]: 0.561 µM; protection of HeLa cells against LF cleavage of MEK1 [2]: effective; survival of infected mice versus DMSO control [3]: a little more effective in protecting the mice; also recorded: best survival; Metabolic stability Hept. CLint [1]: t1/2= >120min CLint= 3.6
